The results in this text go back to US10538555B2, “Macrocyclic inhibitors of the PD-1/PD-L1 and CD80(B7-1)/PD-L1 protein/protein interactions” (BRISTOL-MYERS SQUIBB COMPANY, priority 2014, dated 2020).

pIC50: −log10 of the molar value. Where a SMILES comes first, the peptide text is derived from it. Bridges are numbered along the chain shown (N, C = ends). [ ]: non-standard residue; d: D form. ξ: configuration not given here. Trp(1-CH2COOH) = N[C@@H](Cc1cn(CC(=O)O)c2ccccc12)C(=O)O; Phe(3,4,5-F3) = N[C@@H](Cc1cc(F)c(F)c(F)c1)C(=O)O; NMePhe(4-F) = CN[C@@H](Cc1ccc(F)cc1)C(=O)O; Phe(4-F) = N[C@@H](Cc1ccc(F)cc1)C(=O)O; Hyp = O=C(O)[C@@H]1C[C@@H](O)CN1; NMeF = CN[C@@H](Cc1ccccc1)C(=O)O; dPip(4-aza) = O=C(O)[C@H]1CNCCN1; dHyp = O=C(O)[C@H]1C[C@H](O)CN1; Thr(3ξ) = CC(O)[C@H](N)C(=O)O; NMeNle = CCCC[C@H](NC)C(=O)O; NMeV = CN[C@H](C(=O)O)C(C)C; dPip = O=C(O)[C@H]1CCCCN1; NMeA = CN[C@@H](C)C(=O)O; Orn = NCCC[C@H](N)C(=O)O; Dab = NCC[C@H](N)C(=O)O

The target in this assay is T1, Human PD-L1/PD-1 (Homo sapiens, UniProt Q9NZQ7).
T1 construct: TVMV protease cleavage site (C); made in house; host or cells: HEK293T cells
T1 sequence (Q9NZQ7 with tags, fused parts or gaps): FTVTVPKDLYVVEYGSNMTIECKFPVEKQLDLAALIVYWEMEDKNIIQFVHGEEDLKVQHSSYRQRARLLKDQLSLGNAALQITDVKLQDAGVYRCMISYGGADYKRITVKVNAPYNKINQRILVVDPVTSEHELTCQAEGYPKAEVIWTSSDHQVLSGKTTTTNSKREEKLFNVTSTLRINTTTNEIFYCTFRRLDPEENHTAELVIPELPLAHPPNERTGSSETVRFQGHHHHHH
The experiment in a line: HTRF Human PD-L1/PD-1 binding assay (PD-1-Ig/PD-L1-His). To be noted: PD-L1-His 10 nM, PD-1-Ig 20 nM; class symbol; read-out: HTRF Human PD-L1/PD-1 Binding Assay IC50 Range. An outline of the steps: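 Step 1: compound with PD-L1-His (10 nM final), 15 min. Step 2: PD-1-Ig (20 nM final), 15 min. Step 3: Eu-cryptate anti-Ig (1 nM) plus APC anti-His (20 nM), 30 min equilibration. Signal taken as 665 nm/620 nm ratio.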
For orientation: In TR-FRET formats the signal depends on donor and acceptor labels being close together.
On to `CCCC[C@H]1C(=O)N(C)[C@@H](CCCC)C(=O)N[C@@H](CC(=O)O)C(=O)N[C@H](C(=O)NCC(N)=O)CSCC(=O)N[C@@H](Cc2ccc(O)cc2)C(=O)N(C)[C@@H](C)C(=O)N[C@@H](CC(N)=O)C(=O)N2CCC[C@H]2C(=O)N[C@@H](Cc2c[nH]cn2)C(=O)N[C@@H](CCC(=O)O)C(=O)N2C[C@H](O)C[C@H]2C(=O)N[C@@H](Cc2c[nH]c3ccccc23)C(=O)N[C@@H](CCN)C(=O)N[C@@H](Cc2cn(CC(=O)O)c3ccccc23)C(=O)N1C` [Example 5181] ({CH2CO}-Y[NMeA]NPHE[Hyp]W[Dab][Trp(1-CH2COOH)][NMeNle][NMeNle]DCG-NH2; thioether N-14), for which the pIC50 is 7.00 to 8.00.

Regarding `CCCC[C@H]1C(=O)N2CCC[C@@H]2C(=O)N[C@@H](CC(=O)O)C(=O)N[C@@H](C(C)C)C(=O)N(C)[C@@H](C(C)C)C(=O)N[C@@H](CCC(N)=O)C(=O)N2CCCC[C@@H]2C(=O)N[C@@H](Cc2c[nH]c3ccccc23)C(=O)N[C@@H](Cc2ccc(O)cc2)C(=O)N[C@@H](CCCN)C(=O)N[C@H](C(=O)NCC(N)=O)CSCC(=O)N[C@@H](Cc2ccc(F)cc2)C(=O)N(C)[C@@H](Cc2ccccc2)C(=O)N1C` [Example 9248] ({CH2CO}-[Phe(4-F)][NMeF][NMeNle][dP]DV[NMeV]Q[dPip]WY[Orn]CG-NH2; thioether N-13), the pIC50 is 5.00 to 6.00.

Take `CCCC[C@H]1C(=O)N2CCC[C@@H]2C(=O)N[C@@H](CC(=O)O)C(=O)N[C@@H](C(C)C)C(=O)N(C)[C@@H](Cc2ccccc2)C(=O)N[C@@H](Cc2ccc(O)cc2)C(=O)N2CCNC[C@@H]2C(=O)N[C@@H](Cc2c[nH]c3ccccc23)C(=O)N[C@@H](Cc2ccc(O)cc2)C(=O)N[C@@H](CC(C)C)C(=O)N[C@H](C(=O)NCC(N)=O)CSCC(=O)N[C@@H](Cc2cc(F)c(F)c(F)c2)C(=O)N(C)[C@@H](Cc2ccccc2)C(=O)N1C` [Example 10100] ({CH2CO}-[Phe(3,4,5-F3)][NMeF][NMeNle][dP]DV[NMeF]Y[dPip(4-aza)]WYLCG-NH2; thioether N-13): the pIC50 was 8.00 to 9.00.

As to `CCCC[C@H]1C(=O)N2CCC[C@@H]2C(=O)N[C@@H](CC(=O)O)C(=O)N[C@@H](C(C)C)C(=O)N(C)[C@@H](Cc2ccccc2)C(=O)N[C@@H](Cc2ccc(O)cc2)C(=O)N2C[C@@H](O)C[C@@H]2C(=O)N[C@@H](Cc2c[nH]c3ccccc23)C(=O)N[C@@H](Cc2ccc(O)cc2)C(=O)N[C@@H](CCCN)C(=O)N[C@H](C(=O)NCC(N)=O)CSCC(=O)N[C@@H](Cc2cc(F)c(F)c(F)c2)C(=O)N(C)[C@@H](Cc2ccccc2)C(=O)N1C` [Example 9288] ({CH2CO}-[Phe(3,4,5-F3)][NMeF][NMeNle][dP]DV[NMeF]Y[dHyp]WY[Orn]CG-NH2; thioether N-13), the pIC50 is 8.00 to 9.00.

Regarding `CCCC[C@H]1C(=O)N2CCC[C@@H]2C(=O)N[C@@H](CC(N)=O)C(=O)N[C@@H](C(C)C)C(=O)N(C)[C@@H](Cc2ccccc2)C(=O)N[C@@H](CCC(=O)O)C(=O)N2CCCC[C@@H]2C(=O)N[C@@H](Cc2c[nH]c3ccccc23)C(=O)N[C@@H](Cc2ccc(O)cc2)C(=O)N[C@@H](CC(C)C)C(=O)N[C@H](C(=O)NCC(N)=O)CSCC(=O)N[C@@H](Cc2cc(F)c(F)c(F)c2)C(=O)N(C)[C@@H](Cc2ccc(F)cc2)C(=O)N1C` [Example 10579] ({CH2CO}-[Phe(3,4,5-F3)][NMePhe(4-F)][NMeNle][dP]NV[NMeF]E[dPip]WYLCG-NH2; thioether N-13), the pIC50 is 8.00 to 9.00.

As to `CCCC[C@H]1C(=O)N(C)[C@@H](CCCC)C(=O)N[C@@H](C(C)O)C(=O)N[C@H](C(=O)NCC(N)=O)CSCC(=O)N[C@@H](Cc2ccc(OC)cc2)C(=O)N(C)[C@@H](C)C(=O)N[C@@H](CC(N)=O)C(=O)N2CCC[C@H]2C(=O)N[C@@H](Cc2c[nH]cn2)C(=O)N[C@@H](CCC(N)=O)C(=O)N2C[C@H](O)C[C@H]2C(=O)N[C@@H](Cc2c[nH]c3ccccc23)C(=O)N[C@@H](CO)C(=O)N[C@@H](Cc2cn(CC(=O)O)c3ccccc23)C(=O)N1C` (stereo partly drawn) [Example 7145] ({CH2CO}-Y(Me)[NMeA]NPHQ[Hyp]WS[Trp(1-CH2COOH)][NMeNle][NMeNle][Thr(3ξ)]CG-NH2; thioether N-14), the pIC50 was 8.00 to 9.00.
